The source of these data is publication PMC6835155, “Lessons from LIMK1 enzymology and their impact on inhibitor design” (Biochemical Journal, 2019).

The target of test [1] is T1, LIMK1KD (Homo sapiens, UniProt P53667).
T1 construct: His6 (N, cleaved yes); made in house; host or cells: baculovirus; Sf9 for virus, TriEx insect cells for expression
In words: Differential (dynamic) scanning fluorimetry (DSF) assay, LIMK1KD. It is filed as binding. Conditions: 2 µM LIMK1KD, compound 10 µM, single shot; for ΔTm at 10 µM: read-out: TM Shift LIMK1 (K).

For test [2], the target named is T2, LIMK2KD (Homo sapiens, UniProt P53671).
T2 construct: The cDNA coding for LIMK2 residues 330 to 632 was PCR amplified; His6 (N, cleaved yes); made in house; host or cells: baculovirus; Sf9 for virus, TriEx insect cells for expression
In words: Differential (dynamic) scanning fluorimetry (DSF) assay, LIMK2KD. It is filed as binding. The following applies: LIMK2KD, compound 10 µM, single shot; for ΔTm at 10 µM: read-out: TM Shift LIMK2 (K).

T1 sequence (P53667 330-637): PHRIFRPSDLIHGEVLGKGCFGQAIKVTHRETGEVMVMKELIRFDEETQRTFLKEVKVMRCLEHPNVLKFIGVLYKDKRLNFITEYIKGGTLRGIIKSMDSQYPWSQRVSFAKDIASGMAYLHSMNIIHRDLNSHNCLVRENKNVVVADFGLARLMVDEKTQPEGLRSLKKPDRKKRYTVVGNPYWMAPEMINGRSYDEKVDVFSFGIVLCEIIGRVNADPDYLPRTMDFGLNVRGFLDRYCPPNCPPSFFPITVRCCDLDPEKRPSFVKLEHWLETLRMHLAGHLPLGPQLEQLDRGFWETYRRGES
T2 sequence (P53671 330-632): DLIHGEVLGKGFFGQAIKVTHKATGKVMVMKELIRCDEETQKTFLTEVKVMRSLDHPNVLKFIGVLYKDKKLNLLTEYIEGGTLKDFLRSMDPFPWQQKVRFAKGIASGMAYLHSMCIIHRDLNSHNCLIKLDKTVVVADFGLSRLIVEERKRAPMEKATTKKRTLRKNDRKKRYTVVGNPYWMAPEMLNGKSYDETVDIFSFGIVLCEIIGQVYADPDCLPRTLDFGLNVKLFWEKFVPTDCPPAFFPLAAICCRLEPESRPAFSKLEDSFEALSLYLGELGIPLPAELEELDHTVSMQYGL

Take `O=C1NC(=O)C(=Cc2ccc(-c3ccc(F)cc3)o2)S1` (stereo in doubt) [CAY10505]: the “TM Shift LIMK1 (K)” value in test [1] was determined as 0.7 K. Further, the “TM Shift LIMK2 (K)” value in test [2] was 2.3 K.
As for `Cn1cnc(N)c2ncnc1-2` [3-Methyladenine], the ΔTm at 10 µM in test [1] came to 0.4 °C; in test [2] it was 0.5 °C.
In the case of `CCc1ccc(/C=C2/SC(=S)NC2=O)cc1` [10058-F4], the “TM Shift LIMK1 (K)” value in test [1] came out at 0.3 K. The “TM Shift LIMK2 (K)” value in test [2] is 1.7 K.
The like results for `COc1cc(O)c2c(c1)/C=C/C[C@H](O)[C@H](O)C(=O)/C=C\C[C@H](C)OC2=O` [(5Z)-7-Oxozeaenol] were, in that order, 2.8 K and 0.7 K.
On the same counts, the results for `Cc1nc(NC(=O)N2CCC[C@H]2C(N)=O)sc1-c1csc(C(C)(C)C)n1` [A66] are 0.0 K and 1.0 K.
Turning to `Cc1[nH]nc2ccc(-c3cncc(OC[C@@H](N)Cc4ccccc4)c3)cc12` [A-674563], in test [1], the “TM Shift LIMK1 (K)” value came out at 0.8 K. The “TM Shift LIMK2 (K)” value in test [2] stood at 0.2 K.
The like results for `N#Cc1c(O)c2c(-c3ccc(-c4ccccc4O)cc3)csc2[nH]c1=O` [A-769662] were, in that order, 0.9 K and 2.4 K.
With `CCN1CCN(Cc2ccc(-c3cc4c(N[C@H](C)c5ccccc5)ncnc4[nH]3)cc2)CC1` [AEE788 (NVP-AEE788)], the ΔTm at 10 µM in test [1] came out at 4.7 °C; in test [2], 4.5 °C.
Take `N#CC(C#N)=Cc1ccc(O)c(O)c1` [AG-18]: the “TM Shift LIMK1 (K)” value in test [1] is on record as 0.1 K. Moreover, in test [2], the “TM Shift LIMK2 (K)” value came out at 0.6 K.
As for `N#C/C(=C\c1ccc(O)c(O)c1)C(=O)NCc1ccccc1` [AG-490 (Tyrphostin B42), Tyrphostin B42], in test [1], the “TM Shift LIMK1 (K)” value was 0.7 K. Also, in test [2], the “TM Shift LIMK2 (K)” value turned out to be 0.9 K.
On the same counts, the results for `CC(C)(C)c1cc(C=C(C#N)C#N)cc(Br)c1O` [AG-1024] are 2.5 K and 4.3 K.
In the case of `COc1cc2ncnc(Nc3cccc(Cl)c3)c2cc1OC` [AG-1478 (Tyrphostin AG-1478), Tyrphostin AG-1478], the ΔTm at 10 µM was 1.4 °C in test [1] and -0.2 °C in test [2].
Turning to `COc1ccc2c(Oc3ccc(NC(=O)c4c(C)n(CC(C)(C)O)n(-c5ccccc5)c4=O)nc3)ccnc2c1` [AMG-458], in test [1], the “TM Shift LIMK1 (K)” value is 1.3 K. The “TM Shift LIMK2 (K)” value in test [2] is -0.8 K.
For `Cc1csc(-c2nnc(Nc3ccc(Oc4ncccc4-c4ccnc(N)n4)cc3)c3ccccc23)c1` [AMG-900], the ΔTm at 10 µM in test [1] was 0.5 °C; in test [2] it was -2.1 °C.
Turning to `COc1cc(N2CCC(N3CCN(C)CC3)CC2)ccc1Nc1ncc(Cl)c(Nc2ccccc2P(C)(C)=O)n1` [AP26113], the ΔTm at 10 µM is 3.4 °C in test [1] and 0.1 °C in test [2].
As to `COc1ccc(CNC(=O)Nc2ncc([N+](=O)[O-])s2)cc1` [AR-A014418], in test [1], the “TM Shift LIMK1 (K)” value is on record as 1.4 K. Further, the “TM Shift LIMK2 (K)” value in test [2] was determined as 1.0 K.
The like results for `O=C1NC(=O)/C(=C/c2ccc(-c3ccc(F)cc3O)o2)S1` [AS-252424] were, in that order, -0.1 K and 3.0 K.
On the same counts, the results for `O=C1NC(=O)/C(=C/c2ccc3c(c2)OC(F)(F)O3)S1` [AS-604850] are 0.3 K and 2.2 K.
Regarding `COc1cc(N2CCC(N3CCN(C)CC3)CC2)ccc1Nc1ncnc(Nc2ccccc2S(=O)(=O)C(C)C)n1` [ASP3026], the values for the ΔTm at 10 µM in test [1] and in test [2] were 3.7 °C and 1.4 °C, respectively.
In the case of `C=CC(=O)Nc1ccc2ncnc(Nc3ccc(OCc4cccc(F)c4)c(Cl)c3)c2c1` [AST-1306], the ΔTm at 10 µM in test [1] was determined as 0.4 °C; in test [2], 0.1 °C.
The like results for `O=C(NC1CCNCC1)c1[nH]ncc1NC(=O)c1c(Cl)cccc1Cl` [AT7519] were, in that order, 1.2 °C and 1.3 °C.
Regarding `Clc1ccc(C2(c3ccc(-c4cn[nH]c4)cc3)CCNCC2)cc1` [AT7867], the “TM Shift LIMK1 (K)” value in test [1] was found to be 0.9 K. Further, the “TM Shift LIMK2 (K)” value in test [2] is 1.4 K.
As to `O=C(Nc1c[nH]nc1-c1nc2ccc(CN3CCOCC3)cc2[nH]1)NC1CC1` [AT9283], the results for the ΔTm at 10 µM in test [1] and in test [2] were 9 °C and 4 °C, respectively.
The like results for `C=CC(=O)Nc1cccc(Nc2nc(Nc3ccc(OCCOC)cc3)ncc2F)c1` [AVL-292] were, in that order, 3.8 °C and 3.1 °C.
For `C[C@@H]1COCCN1c1cc(C2(S(C)(=O)=O)CC2)nc(-c2cccc3[nH]ccc23)n1` [AZ20], the “TM Shift LIMK1 (K)” value in test [1] is 0.8 K. The “TM Shift LIMK2 (K)” value in test [2] is listed as -0.8 K.
Turning to `COc1cc(OC2CCN(C)CC2)ccc1Nc1ncc2c(n1)n(C1CCCC1)c(=O)n2C` [AZ3146], the ΔTm at 10 µM amounted to 0.4 °C in test [1] and 0 °C in test [2].
Turning to `Cc1ccc(NC(=O)c2cccc(C(C)(C)C#N)c2)cc1Nc1ccc2ncn(C)c(=O)c2c1` [AZ 628], the “TM Shift LIMK1 (K)” value in test [1] is 0.3 K. The “TM Shift LIMK2 (K)” value in test [2] stood at 1.2 K.
Consider `Cc1cc(Nc2nc(N[C@@H](C)c3ccc(F)cc3)c(C#N)cc2F)[nH]n1` [AZ 960], for which the results for the ΔTm at 10 µM in test [1] and in test [2] were 6 °C and 0.1 °C, respectively.
The like results for `N#Cc1ccc2[nH]c(O)c(-c3ccc(CN4CCOCC4)cn3)c2c1` [AZD1080] were, in that order, 0.5 °C and 2.3 °C.
`CCN(CCO)CCCOc1ccc2c(Nc3cc(CC(=O)Nc4cccc(F)c4)[nH]n3)ncnc2c1` [AZD1152-HQPA, Barasertib]: the “TM Shift LIMK1 (K)” value in test [1] is given as 0.6 K; in test [1] (listed as Barasertib (AZD1152-HQPA)), 0.2 K. Besides, the “TM Shift LIMK2 (K)” value is reported as 0.7 K in test [2] (10 µM) and -0.2 K in test [2] (listed as Barasertib (AZD1152-HQPA), 10 µM).
Turning to `Cc1cc(Nc2nc(N[C@@H](C)c3ncc(F)cn3)ncc2Cl)n[nH]1` [AZD1480], the ΔTm at 10 µM in test [1] worked out at 4.7 °C; in test [2], 0.6 °C.
The like results for `CNC(=O)c1cccc(-c2ccc3c(N4CCOC[C@@H]4C)nc(N4CCOC[C@@H]4C)nc3n2)c1` [AZD2014] were, in that order, 0.2 °C and -0.3 °C.
Consider `COc1cc(N2CCC(N)CC2)ccc1Nc1ncc(Cl)c(-c2c[nH]c3ccccc23)n1` [AZD3463], for which the “TM Shift LIMK1 (K)” value in test [1] was found to be 2.5 K. The “TM Shift LIMK2 (K)” value in test [2] came out at 3.1 K.
As to `Cc1ncc(-c2ccnc(Nc3ccc(S(C)(=O)=O)cc3)n2)n1C(C)C` [AZD5438], the ΔTm at 10 µM in test [1] was 4.4 °C; in test [2] it was 1.7 °C.
In the case of `Cc1cc([C@@H](C)Nc2ccccc2C(=O)O)c2nc(N3CCOCC3)cc(=O)n2c1` [AZD6482], the ΔTm at 10 µM in test [1] was 0.7 °C; in test [2], 1.8 °C.
For the compound `COc1ccc(-c2ccc3c(N4CCOC[C@@H]4C)nc(N4CCOC[C@@H]4C)nc3n2)cc1CO` [AZD8055], the ΔTm at 10 µM was determined as 0.9 °C in test [1] and 0.8 °C in test [2].
On the same counts, the results for `Cc1cc(C(=O)NOCCO)c(Nc2ccc(I)cc2F)n(C)c1=O` [AZD8330] are 0.3 °C and 0.2 °C.
Turning to `Cc1ccc(Nc2nccc(N(C)c3ccc4c(C)n(C)nc4c3)n2)cc1S(N)(=O)=O` [Pazopanib], in test [2], the ΔTm at 10 µM is 6.2 °C.
The same measure, in the same setting: the result for `O=c1c(O)c(-c2ccc(O)c(O)c2)oc2cc(O)cc(O)c12` [Quercetin] reads 3.9 °C.
For the compound `CNC(=O)c1cc(Oc2ccc(NC(=O)Nc3ccc(Cl)c(C(F)(F)F)c3)cc2)ccn1` [Sorafenib], the “TM Shift LIMK1 (K)” value in test [1] is recorded as -0.7 K.
